Literature values in patent US12414928B2, “Viral inactivation spray and gargling formulation” (priority 2021, dated 2025).

How the values were obtained:
[1] = test system: coronavirus disease 2019 (COVID-19)
enveloped virus = conditions: in vitro, pH 4.0

| Structure (SMILES) | virus inactivation [1] | enveloped virus inactivation (enveloped virus) |
| --- | --- | --- |
| Cl [Hydrochloric Acid] | 100% |  |
| N=C(N)NCCC[C@H](N)C(=O)O [L-Arginine] |  | 5 logs reduction |
